Test results taken from patent publication US20230364153A1, “METHOD FOR DIRECT REPROGRAMMING FROM SOMATIC CELLS INTO PANCREATIC BETA CELLS BY USING MICRORNA, AND DIFFERENTIATION COMPOSITION” (Research & Business Foundation Sungkyunkwan University, priority 2020, published 2023).

Experiments:
[1] = tested on: mouse embryonic fibroblasts (MEFs); assay: qRT-PCR of pancreatic lineage markers during three-stage direct reprogramming of MEFs; assay type: cell-based; settings: stage-1 cells, single miRNA transfected, relative to the mimic (FIG. 2a)
Procedure: (§1) MEFs (5×10^4 cells/well per 12-well plate) were transfected using the jetMESSENGER (Polyplus-Transfection, Illkirch, France) reagent according to the manufacturer's instructions. The miRNA to be infected (200 nM) (QIAGEN, Hilden, Germany) was diluted in mRNA buffer and 2 μL of the jetMESSENGER reagent was added thereto. The mixture was incubated at room temperature for 20 minutes and then added to MEFs, and 24 hours thereafter, a stage-specific medium was added thereto.
For direct reprogramming of cells, knockout DMEM (KO-DMEM) (Gibco) was used as a basal medium. The knockout DMEM includes 15% knockout serum replacement (Gibco, Thermo Fisher Scientific, Inc., Waltham, MA, USA), 5% FBS (exosome depleted), 1% GlutaMax (Gibco, Thermo Fisher Scientific, Inc., Waltham, MA, USA), 1% Non-Essential Amino Acids (NEAA, Gibco, Thermo Fisher Scientific, Inc., Waltham, MA, USA), and 0.5 mM β-ME (Sigma Aldrich, Inc., Saint Louis, MO, USA).
The three-stage differentiation protocol of the present disclosure is as follows: Stage 1, differentiation from MEFs into pancreatic endoderm cells; Stage 2, differentiation of pancreatic endoderm cells into pancreatic progenitor-like cells; Stage 3, differentiation from pancreatic progenitor-like cells into beta-cell-like cells.
First, 5×10^4 MEF cells/well were seeded in a 12-well tissue culture plate of DMEM containing 10% FBS and 1×P/S for one day. The next day, a Stage 1 differentiation medium was added thereto. The Stage 1 differentiation medium contains 1 μM Bix-01294 (MedchemExpress, Monmouth Junction, NJ, USA), 280 μM 2-phospho-L-ascorbic acid (pVC) Sigma Aldrich, Inc., Saint Louis, MO, USA), and 50 ng/mL activin A (R&D Systems, Minneapolis, MI, USA). After addition of the medium, cells were maintained for 6 days. The medium used was replaced every 3 days. After 6 days, a Stage 2 differentiation medium was added for 4 days. […]
Statistical significance was determined by a two-way, paired student's t-test. […]

[2] = tested on: mouse embryonic fibroblasts (MEF); assay: Proliferation / morphology of MEFs by bright field microscopy in stage-1 differentiation; assay type: cell-based; settings: after 48 hours (FIG. 3c)
Procedure: FIGS. 3a to 3c confirm the proliferative ability of mouse embryonic fibroblasts (MEF) following transfection with a miRNA mimic and combinations of miRNAs (miR-127, miR-709, and miR-19b) of the present disclosure.
as §1

Substance	induction of Pdx1 expression [1]	cell proliferation [2]
miR-19b: microRNA, SEQ ID NO: 5, ugugcaaauccaugcaaaacuga (UGUGCAAAUCCAUGCAAAACUGA; listed as RNA, chemistry not given here)	1.6 fold	highest cell proliferation
miR-127: microRNA, SEQ ID NO: 1, CUGAAGCUCAGAGGGCUCUGAU	3.9 fold	–
miR-709: microRNA, SEQ ID NO: 2, GGAGGCAGAGGCAGGAGGA (listed as RNA, chemistry not given here)	3.2 fold	–
